Results published in ChEMBL document CHEMBL3877252, “Fluorescein hydrazones: A series of novel non-intercalative topoisomerase IIα catalytic inhibitors induce G1 arrest and apoptosis in breast and colon cancer cells” (Eur J Med Chem, 2017).
Activity calls are given as the source filed them. The calls are words filed in the database; no cut-off is given here.

Key:
[1] = Cell cycle arrest in human HCT15 cells assessed as accumulation at G2/M phase at 10 uM after 20 hrs by DAPI staining-based cell analyzer (reference value: 13%); type: functional; conditions: HCT-15
[2] = Cell cycle arrest in human HCT15 cells assessed as accumulation at S phase at 10 uM after 20 hrs by DAPI staining-based cell analyzer (reference value: 34%); type: functional; conditions: HCT-15
[3] = Cell cycle arrest in human HCT15 cells assessed as accumulation at G1 phase at 1 uM after 20 hrs by DAPI staining-based cell analyzer (reference value: 40%); type: functional; conditions: HCT-15
[4] = Cell cycle arrest in human HCT15 cells assessed as accumulation at G1 phase at 10 uM after 10 hrs by DAPI staining-based cell analyzer (reference value: 61%); type: functional; conditions: HCT-15
[5] = Cell cycle arrest in human HCT15 cells assessed as decrease in cyclin D1 level measured after 20 hrs; type: functional, cell-based; conditions: HCT-15
[6] = Cell cycle arrest in human HCT15 cells assessed as accumulation at G1 phase at 10 uM after 20 hrs by DAPI staining-based cell analyzer (reference value: 40%); type: functional; conditions: HCT-15
[7] = Cell cycle arrest in human HCT15 cells assessed as accumulation at S phase at 10 uM after 15 hrs by DAPI staining-based cell analyzer (reference value: 10%); type: functional; conditions: HCT-15
[8] = Cell cycle arrest in human HCT15 cells assessed as accumulation at S phase at 10 uM after 20 hrs by DAPI staining-based cell analyzer (reference value: 10%); type: functional; conditions: HCT-15
HCT-15 [9] = experiment: Induction of apoptosis in human HCT15 cells assessed as increase in bax level measured after 24 hrs by Western blot analysis; type: functional, cell-based
[10] = Cell cycle arrest in human HCT15 cells assessed as increase in p27kip1 level at 10 uM; type: functional, cell-based; conditions: HCT-15, TDE = time-dependent effect
[11] = Cell cycle arrest in human HCT15 cells assessed as accumulation at G2/M phase at 10 uM after 10 hrs by DAPI staining-based cell analyzer (reference value: 13%); type: functional; conditions: HCT-15
[12] = Antiproliferative activity against human MCF7 cells measured after 72 hrs by CCK8 assay; type: functional, cell-based; conditions: MCF7, 72 h
[13] = target: DNA topoisomerase 2-alpha (Homo sapiens) (UniProt P11388); experiment: Poison activity at topoisomerase-2 alpha in human HCT15 cells assessed as DNA damage by measuring DNA tail length at 5 uM measured after 24 hrs by alkaline comet assay; type: cell-based; conditions: HCT-15
[14] = Cell cycle arrest in human HCT15 cells assessed as accumulation at G1 phase at 10 uM after 15 hrs by DAPI staining-based cell analyzer (reference value: 61%); type: functional; conditions: HCT-15
[15] = target: T1, DNA topoisomerase 1 (Homo sapiens) (UniProt P11387); experiment: Inhibition of human topoisomerase-1 assessed as inhibition of relaxation of supercoiled pBR322 plasmid DNA at 100 uM measured after 1 hr by ethidium bromide staining based agarose gel electrophoresis relative to control
T1 sequence (whole entry): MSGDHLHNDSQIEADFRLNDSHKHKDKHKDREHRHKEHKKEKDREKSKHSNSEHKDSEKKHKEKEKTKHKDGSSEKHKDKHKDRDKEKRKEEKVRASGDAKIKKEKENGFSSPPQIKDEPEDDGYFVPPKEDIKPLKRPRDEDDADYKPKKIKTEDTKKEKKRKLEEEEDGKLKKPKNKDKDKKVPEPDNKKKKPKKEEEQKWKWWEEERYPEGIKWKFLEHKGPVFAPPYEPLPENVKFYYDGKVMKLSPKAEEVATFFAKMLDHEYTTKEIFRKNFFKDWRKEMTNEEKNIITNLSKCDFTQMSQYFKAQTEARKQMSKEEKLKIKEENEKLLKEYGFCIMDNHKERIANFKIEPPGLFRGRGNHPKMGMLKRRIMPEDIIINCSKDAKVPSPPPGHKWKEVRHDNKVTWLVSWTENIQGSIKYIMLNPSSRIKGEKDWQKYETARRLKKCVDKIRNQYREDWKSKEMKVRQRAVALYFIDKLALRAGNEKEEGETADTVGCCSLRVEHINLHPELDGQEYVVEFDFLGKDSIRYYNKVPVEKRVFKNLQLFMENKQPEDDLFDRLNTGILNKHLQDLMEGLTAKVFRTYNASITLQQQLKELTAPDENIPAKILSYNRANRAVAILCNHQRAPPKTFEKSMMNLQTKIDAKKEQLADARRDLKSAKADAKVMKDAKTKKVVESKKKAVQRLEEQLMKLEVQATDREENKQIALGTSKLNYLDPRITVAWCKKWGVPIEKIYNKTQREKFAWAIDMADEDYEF

[16] = target: T1, DNA topoisomerase 1 (Homo sapiens); experiment: Inhibition of human topoisomerase-1 assessed as inhibition of relaxation of supercoiled pBR322 plasmid DNA at 20 uM measured after 1 hr by ethidium bromide staining based agarose gel electrophoresis relative to control
HCT-15 [17] = experiment: Induction of apoptosis in human HCT15 cells assessed as decrease in bcl-2 level measured after 24 hrs by Western blot analysis; type: functional, cell-based
[18] = target: DNA topoisomerase 2-alpha (Homo sapiens) (UniProt P11388); experiment: Inhibition of human topoisomerase-2 alpha assessed as inhibition of relaxation of supercoiled pBR322 plasmid DNA at 100 uM measured after 1 hr by ethidium bromide staining based agarose gel electrophoresis relative to control
[19] = Antiproliferative activity against human T47D cells measured after 72 hrs by CCK8 assay; type: functional, cell-based
[20] = Cell cycle arrest in human HCT15 cells assessed as accumulation at S phase at 3 uM after 20 hrs by DAPI staining-based cell analyzer (reference value: 34%); type: functional; conditions: HCT-15
[21] = Cell cycle arrest in human HCT15 cells assessed as decrease in cyclin D1 level at 10 uM; type: functional, cell-based; conditions: HCT-15, TDE = time-dependent effect
[22] = Antiproliferative activity against human DU145 cells measured after 72 hrs by CCK8 assay; type: functional, cell-based; conditions: DU-145, 72 h
[23] = target: DNA topoisomerase 2-alpha (Homo sapiens) (UniProt P11388); experiment: Poison activity at topoisomerase-2 alpha in human HCT15 cells assessed as DNA damage by measuring DNA tail length at 10 uM measured after 24 hrs by alkaline comet assay; type: cell-based; conditions: HCT-15
[24] = target: DNA topoisomerase 2-alpha (Homo sapiens) (UniProt P11388); experiment: Inhibition of topoisomerase-2 alpha catalytic activity in human HCT15 cells assessed as appearance of free protein band at 50 uM measured after 2 hrs by Western blot analysis; type: cell-based; conditions: HCT-15
[25] = Cell cycle arrest in human HCT15 cells assessed as accumulation at G1 phase at 10 uM by DAPI staining based cell analyzer; type: functional; conditions: HCT-15, TDE = time-dependent effect
[26] = Cell cycle arrest in human HCT15 cells assessed as accumulation at G1 phase at 10 uM after 5 hrs by DAPI staining-based cell analyzer (reference value: 61%); type: functional; conditions: HCT-15
[27] = Cell cycle arrest in human HCT15 cells assessed as accumulation at G2/M phase at 10 uM after 5 hrs by DAPI staining-based cell analyzer (reference value: 13%); type: functional; conditions: HCT-15
[28] = target: DNA topoisomerase 2-alpha (Homo sapiens) (UniProt P11388); experiment: Inhibition of human topoisomerase-2 alpha assessed as inhibition of relaxation of supercoiled pBR322 plasmid DNA at 20 uM measured after 1 hr by ethidium bromide staining based agarose gel electrophoresis relative to control
[29] = Cell cycle arrest in human HCT15 cells assessed as accumulation at G2/M phase at 10 uM after 15 hrs by DAPI staining-based cell analyzer (reference value: 13%); type: functional; conditions: HCT-15
[30] = Cell cycle arrest in human HCT15 cells assessed as increase in p27kip1 level measured after 20 hrs; type: functional, cell-based; conditions: HCT-15
[31] = Cell cycle arrest in human HCT15 cells assessed as accumulation at G2/M phase at 3 uM after 20 hrs by DAPI staining-based cell analyzer (reference value: 13%); type: functional; conditions: HCT-15
[32] = Cell cycle arrest in human HCT15 cells assessed as accumulation at S phase at 10 uM after 5 hrs by DAPI staining-based cell analyzer (reference value: 10%); type: functional; conditions: HCT-15
HCT-15 [33] = experiment: Induction of apoptosis in human HCT15 cells assessed as increase in cleaved PARP level measured after 24 hrs by Western blot analysis; type: functional, cell-based
[34] = Cell cycle arrest in human HCT15 cells assessed as accumulation at G2/M phase at 1 uM after 20 hrs by DAPI staining-based cell analyzer (reference value: 13%); type: functional; conditions: HCT-15
[35] = Cell cycle arrest in human HCT15 cells assessed as accumulation at S phase at 1 uM after 20 hrs by DAPI staining-based cell analyzer (reference value: 34%); type: functional; conditions: HCT-15
[36] = Antiproliferative activity against human HCT15 cells measured after 72 hrs by CCK8 assay; type: functional, cell-based; conditions: HCT-15, 72 h
[37] = Cell cycle arrest in human HCT15 cells assessed as accumulation at G1 phase at 10 uM after 20 hrs by DAPI staining-based cell analyzer (reference value: 61%); type: functional; conditions: HCT-15
[38] = Cell cycle arrest in human HCT15 cells assessed as accumulation at S phase at 10 uM after 10 hrs by DAPI staining-based cell analyzer (reference value: 10%); type: functional; conditions: HCT-15
[39] = Cell cycle arrest in human HCT15 cells assessed as accumulation at G1 phase at 3 uM after 20 hrs by DAPI staining-based cell analyzer (reference value: 40%); type: functional; conditions: HCT-15

DNA topoisomerase 2-alpha (Homo sapiens), sequence (P11388 whole entry): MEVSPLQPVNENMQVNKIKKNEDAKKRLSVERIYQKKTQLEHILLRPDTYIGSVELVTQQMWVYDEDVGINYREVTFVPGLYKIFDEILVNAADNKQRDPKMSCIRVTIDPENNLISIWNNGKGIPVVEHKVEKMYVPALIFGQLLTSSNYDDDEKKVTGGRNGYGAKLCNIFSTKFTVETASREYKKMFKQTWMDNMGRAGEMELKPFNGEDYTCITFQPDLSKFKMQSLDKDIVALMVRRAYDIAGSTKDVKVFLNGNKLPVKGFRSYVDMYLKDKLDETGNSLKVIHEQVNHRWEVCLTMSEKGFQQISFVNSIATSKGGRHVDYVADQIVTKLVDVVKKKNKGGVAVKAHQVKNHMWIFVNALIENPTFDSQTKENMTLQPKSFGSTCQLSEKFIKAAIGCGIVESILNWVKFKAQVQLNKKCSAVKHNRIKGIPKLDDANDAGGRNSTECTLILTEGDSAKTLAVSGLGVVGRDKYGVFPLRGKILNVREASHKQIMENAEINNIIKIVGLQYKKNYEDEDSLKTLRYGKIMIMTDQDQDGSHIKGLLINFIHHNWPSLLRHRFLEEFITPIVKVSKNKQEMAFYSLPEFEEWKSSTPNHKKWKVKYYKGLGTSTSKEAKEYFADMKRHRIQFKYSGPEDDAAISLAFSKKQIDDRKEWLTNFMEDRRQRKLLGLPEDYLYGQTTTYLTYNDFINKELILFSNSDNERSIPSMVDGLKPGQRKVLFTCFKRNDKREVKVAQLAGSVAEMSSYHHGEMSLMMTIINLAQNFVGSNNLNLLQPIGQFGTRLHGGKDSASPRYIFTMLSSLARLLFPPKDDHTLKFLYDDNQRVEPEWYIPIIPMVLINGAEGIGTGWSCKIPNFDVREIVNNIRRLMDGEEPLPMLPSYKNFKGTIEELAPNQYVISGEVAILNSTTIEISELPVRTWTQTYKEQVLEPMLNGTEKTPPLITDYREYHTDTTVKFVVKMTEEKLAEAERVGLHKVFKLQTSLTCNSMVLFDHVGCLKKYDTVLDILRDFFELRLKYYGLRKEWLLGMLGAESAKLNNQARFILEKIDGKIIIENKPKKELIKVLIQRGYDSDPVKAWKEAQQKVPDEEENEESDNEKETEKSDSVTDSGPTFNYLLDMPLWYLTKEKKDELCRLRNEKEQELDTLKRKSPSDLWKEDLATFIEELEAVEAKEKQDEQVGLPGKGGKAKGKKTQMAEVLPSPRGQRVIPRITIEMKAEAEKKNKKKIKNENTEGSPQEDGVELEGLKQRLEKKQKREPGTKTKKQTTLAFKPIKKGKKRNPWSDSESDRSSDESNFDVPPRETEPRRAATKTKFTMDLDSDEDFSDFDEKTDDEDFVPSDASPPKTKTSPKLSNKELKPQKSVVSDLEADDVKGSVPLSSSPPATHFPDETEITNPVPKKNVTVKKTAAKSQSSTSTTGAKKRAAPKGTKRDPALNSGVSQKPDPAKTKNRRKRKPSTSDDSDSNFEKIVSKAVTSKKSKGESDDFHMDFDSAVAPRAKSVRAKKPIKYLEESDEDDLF

- inhibition [15]: 35.6%
- inhibition [16]: 14.8%
- inhibition [18]: 62.4%
- inhibition [24]: Active
- inhibition [28]: 52.7%
Compound: CCOc1ccc2c(c1)Oc1cc(O)ccc1C21c2ccccc2C(=O)N1/N=C/c1ccccc1[N+](=O)[O-] (centres undefined)
- Activity [1]: 11 to 12%
- Activity [2]: 20%
- Activity [3]: 45%
- Activity [4]: 67%
- Activity [5]: Dose-dependent effect
- Activity [6]: 55%
- Activity [7]: 8%
- Activity [8]: 7%
- Activity (HCT-15 [9]): Dose-dependent effect
- Activity [10]: Tde
- Activity [11]: 12%
- IC50 [12]: 11400 nM
- Activity [13]: 7.72 pixel
- Activity [14]: 68%
- Activity (HCT-15 [17]): Dose-dependent effect
- IC50 [19]: > 50000 nM
- Activity [20]: 24%
- Activity [21]: Tde
- IC50 [22]: 1430 nM
- Activity [23]: 8.29 pixel
- Activity [25]: Tde
- Activity [26]: 64%
- Activity [27]: 11%
- Activity [29]: 11%
- Activity [30]: Dose-dependent effect
- Activity [31]: 11%
- Activity [32]: 8%
- Activity (HCT-15 [33]): Dose-dependent effect
- Activity [34]: 14%
- Activity [35]: 28%
- IC50 [36]: 2400 nM
- Activity [37]: 70%
- Activity [38]: 8%
- Activity [39]: 48%
